Measured values from PubChem BioAssay (NCI).
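Five compound concentrations were applied to cells in 96-well plates for 48 hours; endpoints were derived by simple linear interpolation of the resulting dose-response curve. GI50 marks 50% less growth. TGI: concentration producing complete growth inhibition.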

Legend:
Assay in all cases: DTP human tumour cell line panel, 48 h
UACC-257 melanoma = system: UACC-257 melanoma
MOLT-4 leukemia = system: MOLT-4 leukemia
SF-539 CNS = system: SF-539 CNS
K-562 leukemia = system: K-562 leukemia
MDA-MB-231 breast = system: MDA-MB-231 breast
RPMI-8226 leukemia = system: RPMI-8226 leukemia
SK-MEL-28 melanoma = system: SK-MEL-28 melanoma
OVCAR-8 ovarian = system: OVCAR-8 ovarian
OVCAR-3 ovarian = system: OVCAR-3 ovarian
IGROV1 ovarian = system: IGROV1 ovarian
786-0 renal = system: 786-0 renal
A549 NSCLC = system: A549 NSCLC
RXF 393 renal = system: RXF 393 renal
NCI-H23 lung = system: NCI-H23 lung
ACHN renal = system: ACHN renal
CCRF-CEM leukemia = system: CCRF-CEM leukemia
UO-31 renal = system: UO-31 renal
NCI-H226 lung = system: NCI-H226 lung
EKVX NSCLC = system: EKVX NSCLC
T-47D breast = system: T-47D breast
SF-295 CNS = system: SF-295 CNS
MDA-MB-435 = system: MDA-MB-435
HT29 colon = system: HT29 colon
HOP-62 NSCLC = system: HOP-62 NSCLC
MCF7 breast = system: MCF7 breast
HOP-92 NSCLC = system: HOP-92 NSCLC
SNB-19 CNS = system: SNB-19 CNS
PC-3 prostate = system: PC-3 prostate
DU-145 prostate = system: DU-145 prostate
OVCAR-4 ovarian = system: OVCAR-4 ovarian
OVCAR-5 ovarian = system: OVCAR-5 ovarian
SK-OV-3 ovarian = system: SK-OV-3 ovarian
HCT-116 colon = system: HCT-116 colon
UACC-62 melanoma = system: UACC-62 melanoma
LOX IMVI melanoma = system: LOX IMVI melanoma
NCI/ADR-RES ovarian = system: NCI/ADR-RES ovarian
CAKI-1 renal = system: CAKI-1 renal
HCC-2998 colon = system: HCC-2998 colon
SR leukemia = system: SR leukemia
HCT-15 colon = system: HCT-15 colon
M14 melanoma = system: M14 melanoma
SK-MEL-2 melanoma = system: SK-MEL-2 melanoma
MALME-3M melanoma = system: MALME-3M melanoma
COLO 205 colon = system: COLO 205 colon
SK-MEL-5 melanoma = system: SK-MEL-5 melanoma
SN12C renal = system: SN12C renal
MDA-MB-468 breast = system: MDA-MB-468 breast
TK-10 renal = system: TK-10 renal
KM12 colon = system: KM12 colon
U251 CNS = system: U251 CNS
A498 renal = system: A498 renal
SF-268 CNS = system: SF-268 CNS
NCI-H460 lung = system: NCI-H460 lung
NCI-H522 lung = system: NCI-H522 lung
HS 578T breast = system: HS 578T breast
BT-549 breast = system: BT-549 breast

COc1ccc(C(=O)/C=C/c2cccc(Br)c2)cc1S(N)(=O)=O gave a GI50 (UACC-257 melanoma) of 3.27 µM, a TGI (UACC-257 melanoma) of 14.5 µM and a GI50 (MOLT-4 leukemia) of 2.17 µM. It also gave a TGI (MOLT-4 leukemia) of 4.71 µM, a GI50 (SF-539 CNS) of 1.69 µM and a TGI (SF-539 CNS) of 3.44 µM. For the same compound, the GI50 (K-562 leukemia) was 1.35 µM, the TGI (K-562 leukemia) was 4.41 µM and the GI50 (MDA-MB-231 breast) was 2.45 µM. It also gave a TGI (MDA-MB-231 breast) of 6.75 µM, a GI50 (RPMI-8226 leukemia) of 2.05 µM and a TGI (RPMI-8226 leukemia) of 5.52 µM. For the same compound, the GI50 (SK-MEL-28 melanoma) was 2.15 µM, the TGI (SK-MEL-28 melanoma) was 5.46 µM and the GI50 (OVCAR-8 ovarian) was 2.28 µM. It also gave a TGI (OVCAR-8 ovarian) of 10.6 µM, a GI50 (OVCAR-3 ovarian) of 1.29 µM and a TGI (OVCAR-3 ovarian) of 3.17 µM. For the same compound, the GI50 (IGROV1 ovarian) was 2.24 µM, the TGI (IGROV1 ovarian) was 8.6 µM and the GI50 (786-0 renal) was 1.63 µM. The TGI (786-0 renal) was 3.33 µM, the GI50 (A549 NSCLC) was 2.82 µM and the TGI (A549 NSCLC) was 10.2 µM. The GI50 (RXF 393 renal) was 1.6 µM, the TGI (RXF 393 renal) was 3.2 µM and the GI50 (NCI-H23 lung) was 1.77 µM. The TGI (NCI-H23 lung) was 3.43 µM, the GI50 (ACHN renal) was 1.67 µM and the TGI (ACHN renal) was 3.11 µM. It also gave a GI50 (CCRF-CEM leukemia) of 2.54 µM, a TGI (CCRF-CEM leukemia) of 6.12 µM and a GI50 (UO-31 renal) of 1.29 µM. It also gave a TGI (UO-31 renal) of 2.7 µM, a GI50 (NCI-H226 lung) of 2.81 µM and a TGI (NCI-H226 lung) of 11.4 µM. It also gave a GI50 (EKVX NSCLC) of 5.24 µM, a TGI (EKVX NSCLC) of 18.5 µM and a GI50 (T-47D breast) of 2.13 µM. The TGI (T-47D breast) was 6.01 µM, the GI50 (SF-295 CNS) was 2.09 µM and the TGI (SF-295 CNS) was 6.44 µM. It also gave a GI50 (MDA-MB-435) of 2.06 µM, a TGI (MDA-MB-435) of 7.14 µM and a GI50 (HT29 colon) of 1.61 µM. The TGI (HT29 colon) was 3.28 µM, the GI50 (HOP-62 NSCLC) was 2.05 µM and the TGI (HOP-62 NSCLC) was 5.74 µM. For the same compound, the GI50 (MCF7 breast) was 1.58 µM, the TGI (MCF7 breast) was 5.22 µM and the GI50 (HOP-92 NSCLC) was 1.8 µM. It also gave a TGI (HOP-92 NSCLC) of 11.8 µM, a GI50 (SNB-19 CNS) of 2.91 µM and a TGI (SNB-19 CNS) of 12 µM. For the same compound, the GI50 (PC-3 prostate) was 2.02 µM, the TGI (PC-3 prostate) was 4.93 µM and the GI50 (DU-145 prostate) was 3.56 µM. For the same compound, the TGI (DU-145 prostate) was 12.8 µM, the GI50 (OVCAR-4 ovarian) was 4.08 µM and the TGI (OVCAR-4 ovarian) was 17.3 µM. For the same compound, the GI50 (OVCAR-5 ovarian) was 1.74 µM, the TGI (OVCAR-5 ovarian) was 4.25 µM and the GI50 (SK-OV-3 ovarian) was 4.06 µM. It also gave a TGI (SK-OV-3 ovarian) of 15 µM, a GI50 (HCT-116 colon) of 1.04 µM and a TGI (HCT-116 colon) of 2.21 µM. It also gave a GI50 (UACC-62 melanoma) of 1.68 µM, a TGI (UACC-62 melanoma) of 3.89 µM and a GI50 (LOX IMVI melanoma) of 1.24 µM. For the same compound, the TGI (LOX IMVI melanoma) was 2.48 µM, the GI50 (NCI/ADR-RES ovarian) was 2.21 µM and the TGI (NCI/ADR-RES ovarian) was 7.13 µM. The GI50 (CAKI-1 renal) was 2.28 µM, the TGI (CAKI-1 renal) was 7.89 µM and the GI50 (HCC-2998 colon) was 1.45 µM. For the same compound, the TGI (HCC-2998 colon) was 2.99 µM, the GI50 (SR leukemia) was 0.732 µM and the TGI (SR leukemia) was 3.54 µM. It also gave a GI50 (HCT-15 colon) of 1.01 µM, a TGI (HCT-15 colon) of 2.39 µM and a GI50 (M14 melanoma) of 1.81 µM. It also gave a TGI (M14 melanoma) of 4.64 µM, a GI50 (SK-MEL-2 melanoma) of 8.73 µM and a TGI (SK-MEL-2 melanoma) of 21.9 µM. It also gave a GI50 (MALME-3M melanoma) of 3.19 µM, a TGI (MALME-3M melanoma) of 14 µM and a GI50 (COLO 205 colon) of 1.92 µM. The TGI (COLO 205 colon) was 3.51 µM, the GI50 (SK-MEL-5 melanoma) was 2.31 µM and the TGI (SK-MEL-5 melanoma) was 6.38 µM. For the same compound, the GI50 (SN12C renal) was 1.44 µM, the TGI (SN12C renal) was 3.48 µM and the GI50 (MDA-MB-468 breast) was 1.39 µM. It also gave a TGI (MDA-MB-468 breast) of 2.87 µM, a GI50 (TK-10 renal) of 2.23 µM and a TGI (TK-10 renal) of 11.9 µM. It also gave a GI50 (KM12 colon) of 1.33 µM, a TGI (KM12 colon) of 3.29 µM and a GI50 (U251 CNS) of 1.34 µM. It also gave a TGI (U251 CNS) of 2.69 µM, a GI50 (A498 renal) of 13.8 µM and a TGI (A498 renal) of 27 µM. The GI50 (SF-268 CNS) was 3.02 µM, the TGI (SF-268 CNS) was 12.7 µM and the GI50 (NCI-H460 lung) was 3.16 µM. For the same compound, the TGI (NCI-H460 lung) was 11.4 µM, the GI50 (NCI-H522 lung) was 1.63 µM and the TGI (NCI-H522 lung) was 3.23 µM. The GI50 (HS 578T breast) was 16 µM, the TGI (HS 578T breast) was 68.6 µM and the GI50 (BT-549 breast) was 1.51 µM. For the same compound, the TGI (BT-549 breast) was 3.46 µM.
